Reference: ChEMBL document CHEMBL1201862, “PubChem BioAssay data set” (2004)
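Where inhibition never reached the appropriate level, the endpoint shown equals the highest concentration tested. Otherwise, values were interpolated linearly from a five-concentration, 48-hour dose response in 96-well plates. Here, GI50 denotes the concentration required for 50% inhibition of growth.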 The source made the active and inactive calls. No stated cut-off is given here; in the data, active = GI50 up to about 1.1 µM and inactive = higher.

Tests used:
Assay in all cases: inhibition of tumour cell growth, NCI panel, 48 h
[1] = system: PC-3
[2] = system: LOX IMVI
[3] = system: OVCAR-8
[4] = system: NCI-H23
[5] = system: DU-145
[6] = system: UACC-62
[7] = system: M14
[8] = system: SF-539
[9] = system: SK-MEL-5
[10] = system: K562
[11] = system: A549
[12] = system: HOP-92
[13] = system: UACC-257
[14] = system: EKVX
[15] = system: 786-0
[16] = system: U-251
[17] = system: KM12
[18] = system: COLO 205
[19] = system: NCI-H460

Measured: GI50

CC(=O)Nc1ccc(-c2nc3ccccc3s2)cc1Cl
inactive: [1] > 100 µM | [2] > 86.5 µM | [3] 66.5 µM | [4] 51.4 µM | [5] 55.6 µM | [6] > 73.5 µM | [7] 68.7 µM | [8] 16.3 µM | [9] > 100 µM | [10] > 100 µM | [11] 99.8 µM | [12] 54.2 µM | [13] > 41.1 µM | [14] 5.6 µM | [15] > 78.3 µM | [16] > 84.1 µM | [17] 57.4 µM | [18] > 100 µM

c1ccc(CSP234N5CCN2CCN3CCN4CC5)c(CSP234N5CCN2CCN3CCN4CC5)c1
inactive: [1] > 100 µM | [2] > 100 µM | [3] > 100 µM | [4] > 100 µM | [5] > 100 µM | [6] > 100 µM | [7] 31.5 µM | [8] 41.7 µM | [9] 55 µM | [11] > 100 µM | [12] 46.2 µM | [19] > 100 µM | [13] > 100 µM | [14] > 100 µM | [15] > 100 µM | [16] > 100 µM | [17] > 100 µM | [18] 13.6 µM

Cn1c(=O)c(Br)c(C=O)n(CCO[N+](=O)[O-])c1=O
inactive: [1] 9.14 µM | [2] 2.14 µM | [3] 2.52 µM | [4] 5.7 µM | [5] 27.2 µM | [6] 1.23 µM | [7] 3.99 µM | [8] 7.76 µM | [9] 11.2 µM | [10] 2.66 µM | [11] 16.1 µM | [12] 2.72 µM | [19] 15.9 µM | [14] 2.78 µM | [15] 5.14 µM | [16] 3.02 µM | [18] 5.92 µM

COc1ccccc1NC(=S)N/N=C/c1c(C)n(C)n(-c2ccccc2)c1=O
inactive: [1] > 100 µM | [2] 49.8 µM | [3] 56.9 µM | [4] > 100 µM | [5] 40.8 µM | [6] > 100 µM | [7] 61.8 µM | [8] 49.9 µM | [9] > 100 µM | [10] > 100 µM | [12] 43.6 µM | [19] > 100 µM | [13] > 100 µM | [14] > 100 µM | [15] > 100 µM | [16] > 100 µM | [17] 31.8 µM | [18] > 100 µM

C/C=C/C(=O)N1C(=O)OC[C@@H]1c1ccccc1
inactive: [1] 18.3 µM | [2] 18.2 µM | [3] 16.7 µM | [4] 17.2 µM | [5] 20.5 µM | [7] 19.4 µM | [8] 21.9 µM | [9] 18.7 µM | [10] 22.8 µM | [11] 19.1 µM | [12] 20.6 µM | [13] 20.4 µM | [14] 17.6 µM | [15] 18.2 µM | [16] 23.1 µM | [17] 14.7 µM | [18] 21.8 µM

O=C(/C=C/c1ccc(OCc2ccccc2)cc1)NCc1ccc(C(=O)NCCc2ccccc2)cc1
inactive: [1] > 100 µM | [2] > 100 µM | [3] > 100 µM | [4] > 100 µM | [5] > 100 µM | [6] > 100 µM | [7] > 100 µM | [8] > 100 µM | [9] > 100 µM | [11] > 100 µM | [12] > 100 µM | [19] > 100 µM | [13] > 100 µM | [14] 23.3 µM | [15] > 100 µM | [16] > 100 µM | [17] > 100 µM | [18] > 100 µM

CSC1(Cc2ccccn2)C(=O)Nc2cccc([N+](=O)[O-])c21 (centres undefined)
inactive: [1] > 100 µM | [2] 53.5 µM | [3] > 100 µM | [4] > 100 µM | [5] > 100 µM | [6] > 100 µM | [7] > 100 µM | [8] > 100 µM | [9] > 100 µM | [11] > 100 µM | [12] > 100 µM | [19] > 100 µM | [13] > 100 µM | [14] > 100 µM | [15] > 100 µM | [16] > 100 µM | [17] > 100 µM | [18] > 100 µM

N=C(N)N/N=C/c1c(-c2ccc(Cl)c(Cl)c2Cl)nc2sccn12
inactive: [1] 2.72 µM | [2] 1.64 µM | [3] 1.71 µM | [4] 1.29 µM | [5] 1.7 µM | [6] 1.44 µM | [7] 1.57 µM | [8] 3.33 µM | [9] 1.74 µM | [11] 1.53 µM | [12] 1.44 µM | [19] 1.7 µM | [13] 1.65 µM | [14] 1.5 µM | [15] 1.41 µM | [16] 1.2 µM | [17] 1.58 µM | [18] 1.42 µM

Cc1ccnc(NC(=S)Nc2ccc([N+](=O)[O-])cc2)c1
inactive: [1] > 100 µM | [2] > 100 µM | [3] 35.5 µM | [4] > 100 µM | [5] 34.6 µM | [6] > 100 µM | [7] > 100 µM | [8] 26.4 µM | [9] > 100 µM | [10] > 100 µM | [12] 31.1 µM | [19] 80.5 µM | [13] > 100 µM | [14] > 100 µM | [15] 75.3 µM | [16] 49 µM | [17] > 100 µM

OCc1ccc2c(c1)CC1(Cc3ccccc3C1)C2
inactive: [1] 10.8 µM | [2] 15.4 µM | [3] 21.2 µM | [4] 33 µM | [5] 33.8 µM | [6] 20.1 µM | [8] 18.3 µM | [9] 11.5 µM | [10] 7.11 µM | [11] 20.6 µM | [12] 17.1 µM | [19] 19.6 µM | [13] 15.1 µM | [14] 26.1 µM | [15] 15.1 µM | [17] 14.4 µM | [18] 15.6 µM

CO/C=C/C=C(\C#N)C(=O)OC
inactive: [1] > 100 µM | [2] > 100 µM | [3] > 100 µM | [4] > 100 µM | [5] > 100 µM | [6] > 100 µM | [8] > 100 µM | [9] > 100 µM | [10] > 100 µM | [11] > 100 µM | [12] > 100 µM | [19] > 100 µM | [13] > 100 µM | [14] > 100 µM | [15] > 100 µM | [16] > 100 µM | [17] > 100 µM | [18] > 100 µM
